One block for each compound: values may come before it.
Experiments:
[1] = molecular target: Transient receptor potential cation channel subfamily M member 7 (Homo sapiens) (UniProt Q96QT4); experiment: Inhibition of human recombinant ChaK1 at 500 nM in presence of ATP by radiometric assay relative to control
[2] = molecular target: Calcium/calmodulin-dependent protein kinase type 1G (Homo sapiens) (UniProt Q96NX5); experiment: Inhibition of human recombinant CaMK1g at 500 nM related to control ULK1
Sequence of Calcium/calmodulin-dependent protein kinase type 1G (Homo sapiens) (Q96NX5 whole entry): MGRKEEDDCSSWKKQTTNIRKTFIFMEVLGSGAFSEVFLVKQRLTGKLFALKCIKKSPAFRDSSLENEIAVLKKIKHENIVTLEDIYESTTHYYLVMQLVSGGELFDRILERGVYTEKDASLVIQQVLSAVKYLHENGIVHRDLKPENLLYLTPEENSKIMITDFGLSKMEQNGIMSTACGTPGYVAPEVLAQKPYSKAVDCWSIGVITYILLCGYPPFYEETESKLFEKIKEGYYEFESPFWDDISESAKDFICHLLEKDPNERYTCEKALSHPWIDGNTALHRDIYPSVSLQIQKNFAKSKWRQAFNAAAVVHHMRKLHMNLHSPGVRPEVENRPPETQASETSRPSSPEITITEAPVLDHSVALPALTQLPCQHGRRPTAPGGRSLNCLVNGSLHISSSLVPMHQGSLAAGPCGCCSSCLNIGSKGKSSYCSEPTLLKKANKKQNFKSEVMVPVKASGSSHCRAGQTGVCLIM

[3] = molecular target: 3-phosphoinositide-dependent protein kinase 1 (Homo sapiens) (UniProt O15530); experiment: Inhibition of human recombinant PDK1 at 15 nM in presence of ATP by radiometric assay relative to control
Sequence of 3-phosphoinositide-dependent protein kinase 1 (Homo sapiens) (O15530 whole entry, looked up): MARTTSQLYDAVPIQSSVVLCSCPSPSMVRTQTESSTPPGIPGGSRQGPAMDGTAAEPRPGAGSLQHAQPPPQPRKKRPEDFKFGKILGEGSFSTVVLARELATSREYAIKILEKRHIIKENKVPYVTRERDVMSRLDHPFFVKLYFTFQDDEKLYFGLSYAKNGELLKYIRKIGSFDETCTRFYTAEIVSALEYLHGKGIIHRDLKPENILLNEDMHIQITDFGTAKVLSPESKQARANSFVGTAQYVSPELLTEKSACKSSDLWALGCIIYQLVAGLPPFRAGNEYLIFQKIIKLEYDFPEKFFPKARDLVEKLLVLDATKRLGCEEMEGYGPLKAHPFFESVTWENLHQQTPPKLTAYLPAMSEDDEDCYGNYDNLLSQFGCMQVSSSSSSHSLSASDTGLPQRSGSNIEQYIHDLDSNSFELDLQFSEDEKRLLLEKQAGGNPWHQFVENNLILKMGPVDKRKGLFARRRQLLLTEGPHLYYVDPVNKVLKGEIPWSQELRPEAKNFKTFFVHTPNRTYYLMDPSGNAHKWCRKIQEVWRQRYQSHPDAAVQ

[4] = molecular target: Serine/threonine-protein kinase SIK2 (Homo sapiens) (UniProt Q9H0K1); experiment: Inhibition of human recombinant QIK at 15 nM in presence of ATP by radiometric assay relative to control
Sequence of Serine/threonine-protein kinase SIK2 (Homo sapiens) (Q9H0K1 whole entry, looked up): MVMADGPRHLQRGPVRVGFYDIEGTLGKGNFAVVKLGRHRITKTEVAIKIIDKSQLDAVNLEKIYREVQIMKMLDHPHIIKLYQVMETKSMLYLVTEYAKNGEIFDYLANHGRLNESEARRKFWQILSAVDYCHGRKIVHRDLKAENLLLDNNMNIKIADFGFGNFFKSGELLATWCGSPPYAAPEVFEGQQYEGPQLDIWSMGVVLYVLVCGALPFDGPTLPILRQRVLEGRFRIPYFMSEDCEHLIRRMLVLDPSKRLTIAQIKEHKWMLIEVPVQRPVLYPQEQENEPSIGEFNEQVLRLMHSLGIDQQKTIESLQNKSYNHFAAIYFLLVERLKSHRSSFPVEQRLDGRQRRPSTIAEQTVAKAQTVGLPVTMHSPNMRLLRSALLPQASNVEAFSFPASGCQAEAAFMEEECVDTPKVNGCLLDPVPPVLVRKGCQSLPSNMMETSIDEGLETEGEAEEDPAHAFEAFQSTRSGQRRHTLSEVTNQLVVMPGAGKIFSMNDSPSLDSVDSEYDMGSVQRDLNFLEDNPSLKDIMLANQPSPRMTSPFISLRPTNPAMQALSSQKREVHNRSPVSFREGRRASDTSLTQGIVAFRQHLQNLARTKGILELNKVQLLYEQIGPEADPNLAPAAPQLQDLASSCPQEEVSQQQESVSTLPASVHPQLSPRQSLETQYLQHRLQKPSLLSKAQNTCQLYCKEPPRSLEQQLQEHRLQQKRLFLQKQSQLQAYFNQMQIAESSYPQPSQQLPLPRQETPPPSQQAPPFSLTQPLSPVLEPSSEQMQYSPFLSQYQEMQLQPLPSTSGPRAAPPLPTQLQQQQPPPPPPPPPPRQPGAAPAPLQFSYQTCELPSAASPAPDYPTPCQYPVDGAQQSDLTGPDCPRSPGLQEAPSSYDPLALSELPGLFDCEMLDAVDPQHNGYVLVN

[5] = molecular target: Calcium/calmodulin-dependent protein kinase type 1B (Homo sapiens) (UniProt Q6P2M8); experiment: Inhibition of human recombinant CaMK1b at 15 nM related to control ULK1
Sequence of Calcium/calmodulin-dependent protein kinase type 1B (Homo sapiens) (Q6P2M8 whole entry): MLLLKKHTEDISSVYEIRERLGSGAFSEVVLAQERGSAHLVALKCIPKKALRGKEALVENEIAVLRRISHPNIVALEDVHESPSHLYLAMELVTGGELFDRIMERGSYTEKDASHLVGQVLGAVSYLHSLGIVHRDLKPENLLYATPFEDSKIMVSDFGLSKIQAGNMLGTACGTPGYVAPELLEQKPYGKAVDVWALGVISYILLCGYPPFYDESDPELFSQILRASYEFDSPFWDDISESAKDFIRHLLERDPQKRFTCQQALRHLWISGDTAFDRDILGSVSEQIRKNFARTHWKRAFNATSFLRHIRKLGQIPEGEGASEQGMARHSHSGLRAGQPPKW

[6] = molecular target: Rho-associated protein kinase 2 (Homo sapiens) (UniProt O75116); experiment: Inhibition of human recombinant ROCK2 at 40 nM related to control ULK1
[7] = molecular target: T1, Rhodopsin kinase GRK1 (Homo sapiens) (UniProt Q15835); experiment: Inhibition of human recombinant RHOK at 40 nM related to control ULK1
T1 sequence (whole entry): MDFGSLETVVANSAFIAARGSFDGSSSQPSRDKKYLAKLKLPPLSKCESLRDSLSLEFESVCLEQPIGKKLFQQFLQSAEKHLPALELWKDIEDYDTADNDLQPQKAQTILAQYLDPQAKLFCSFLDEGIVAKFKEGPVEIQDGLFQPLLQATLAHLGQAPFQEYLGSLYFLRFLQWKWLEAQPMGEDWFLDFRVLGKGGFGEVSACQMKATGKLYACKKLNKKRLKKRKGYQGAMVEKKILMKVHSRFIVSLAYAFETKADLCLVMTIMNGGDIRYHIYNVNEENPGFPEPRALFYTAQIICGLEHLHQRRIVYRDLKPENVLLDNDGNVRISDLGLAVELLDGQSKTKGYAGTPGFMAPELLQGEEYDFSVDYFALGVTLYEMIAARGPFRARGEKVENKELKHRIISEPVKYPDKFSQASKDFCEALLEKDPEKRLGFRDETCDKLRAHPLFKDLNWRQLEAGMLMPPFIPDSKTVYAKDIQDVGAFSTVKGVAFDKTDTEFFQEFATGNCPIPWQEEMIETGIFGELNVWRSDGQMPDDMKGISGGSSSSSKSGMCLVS

[8] = molecular target: T2, Serine/threonine-protein kinase TBK1 (Homo sapiens) (UniProt Q9UHD2); experiment: Inhibition of human recombinant TBK1 at 40 nM related to control ULK1
T2 sequence (whole entry): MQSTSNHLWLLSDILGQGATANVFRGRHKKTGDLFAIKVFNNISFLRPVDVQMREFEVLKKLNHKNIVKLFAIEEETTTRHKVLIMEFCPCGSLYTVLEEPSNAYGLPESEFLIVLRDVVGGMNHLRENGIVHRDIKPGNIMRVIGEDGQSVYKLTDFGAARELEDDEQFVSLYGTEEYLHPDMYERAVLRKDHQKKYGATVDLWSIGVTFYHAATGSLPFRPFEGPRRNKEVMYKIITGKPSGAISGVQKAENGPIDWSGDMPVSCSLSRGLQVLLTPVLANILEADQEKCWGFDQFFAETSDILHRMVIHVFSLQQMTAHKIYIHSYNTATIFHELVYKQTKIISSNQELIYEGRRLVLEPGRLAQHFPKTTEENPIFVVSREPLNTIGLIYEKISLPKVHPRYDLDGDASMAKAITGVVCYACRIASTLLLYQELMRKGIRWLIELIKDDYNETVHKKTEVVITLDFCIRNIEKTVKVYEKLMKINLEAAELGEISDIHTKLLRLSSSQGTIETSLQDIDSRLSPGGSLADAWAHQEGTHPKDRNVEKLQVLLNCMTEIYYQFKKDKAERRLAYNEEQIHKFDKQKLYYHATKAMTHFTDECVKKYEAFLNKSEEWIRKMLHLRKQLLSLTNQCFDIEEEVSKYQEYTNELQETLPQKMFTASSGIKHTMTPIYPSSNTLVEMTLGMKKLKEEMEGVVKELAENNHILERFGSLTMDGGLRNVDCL

[9] = molecular target: T3, cGMP-dependent protein kinase 2 (Homo sapiens) (UniProt Q13237); experiment: Inhibition of human recombinant PKG2 at 40 nM related to control ULK1
T3 sequence (whole entry): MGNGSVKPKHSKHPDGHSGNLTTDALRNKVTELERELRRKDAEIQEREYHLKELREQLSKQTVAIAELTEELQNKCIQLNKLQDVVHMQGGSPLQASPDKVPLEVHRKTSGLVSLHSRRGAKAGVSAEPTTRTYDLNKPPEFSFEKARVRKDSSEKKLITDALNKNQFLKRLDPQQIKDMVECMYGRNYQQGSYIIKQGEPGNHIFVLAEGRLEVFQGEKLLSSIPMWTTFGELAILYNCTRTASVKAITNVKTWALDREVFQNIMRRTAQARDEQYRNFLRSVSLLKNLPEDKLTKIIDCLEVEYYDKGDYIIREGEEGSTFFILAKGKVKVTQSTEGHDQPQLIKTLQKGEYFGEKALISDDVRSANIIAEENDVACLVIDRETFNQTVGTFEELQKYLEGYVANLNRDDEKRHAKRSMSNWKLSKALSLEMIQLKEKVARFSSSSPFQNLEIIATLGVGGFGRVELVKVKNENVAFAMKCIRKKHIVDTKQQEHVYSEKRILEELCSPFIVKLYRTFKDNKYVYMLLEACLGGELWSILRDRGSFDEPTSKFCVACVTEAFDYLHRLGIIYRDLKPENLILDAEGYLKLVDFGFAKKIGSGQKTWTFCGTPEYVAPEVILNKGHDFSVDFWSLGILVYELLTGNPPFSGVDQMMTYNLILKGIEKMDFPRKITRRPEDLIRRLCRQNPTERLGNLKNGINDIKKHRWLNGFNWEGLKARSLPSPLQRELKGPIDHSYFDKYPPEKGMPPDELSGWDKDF

Sequence of Transient receptor potential cation channel subfamily M member 7 (Homo sapiens) (Q96QT4 whole entry): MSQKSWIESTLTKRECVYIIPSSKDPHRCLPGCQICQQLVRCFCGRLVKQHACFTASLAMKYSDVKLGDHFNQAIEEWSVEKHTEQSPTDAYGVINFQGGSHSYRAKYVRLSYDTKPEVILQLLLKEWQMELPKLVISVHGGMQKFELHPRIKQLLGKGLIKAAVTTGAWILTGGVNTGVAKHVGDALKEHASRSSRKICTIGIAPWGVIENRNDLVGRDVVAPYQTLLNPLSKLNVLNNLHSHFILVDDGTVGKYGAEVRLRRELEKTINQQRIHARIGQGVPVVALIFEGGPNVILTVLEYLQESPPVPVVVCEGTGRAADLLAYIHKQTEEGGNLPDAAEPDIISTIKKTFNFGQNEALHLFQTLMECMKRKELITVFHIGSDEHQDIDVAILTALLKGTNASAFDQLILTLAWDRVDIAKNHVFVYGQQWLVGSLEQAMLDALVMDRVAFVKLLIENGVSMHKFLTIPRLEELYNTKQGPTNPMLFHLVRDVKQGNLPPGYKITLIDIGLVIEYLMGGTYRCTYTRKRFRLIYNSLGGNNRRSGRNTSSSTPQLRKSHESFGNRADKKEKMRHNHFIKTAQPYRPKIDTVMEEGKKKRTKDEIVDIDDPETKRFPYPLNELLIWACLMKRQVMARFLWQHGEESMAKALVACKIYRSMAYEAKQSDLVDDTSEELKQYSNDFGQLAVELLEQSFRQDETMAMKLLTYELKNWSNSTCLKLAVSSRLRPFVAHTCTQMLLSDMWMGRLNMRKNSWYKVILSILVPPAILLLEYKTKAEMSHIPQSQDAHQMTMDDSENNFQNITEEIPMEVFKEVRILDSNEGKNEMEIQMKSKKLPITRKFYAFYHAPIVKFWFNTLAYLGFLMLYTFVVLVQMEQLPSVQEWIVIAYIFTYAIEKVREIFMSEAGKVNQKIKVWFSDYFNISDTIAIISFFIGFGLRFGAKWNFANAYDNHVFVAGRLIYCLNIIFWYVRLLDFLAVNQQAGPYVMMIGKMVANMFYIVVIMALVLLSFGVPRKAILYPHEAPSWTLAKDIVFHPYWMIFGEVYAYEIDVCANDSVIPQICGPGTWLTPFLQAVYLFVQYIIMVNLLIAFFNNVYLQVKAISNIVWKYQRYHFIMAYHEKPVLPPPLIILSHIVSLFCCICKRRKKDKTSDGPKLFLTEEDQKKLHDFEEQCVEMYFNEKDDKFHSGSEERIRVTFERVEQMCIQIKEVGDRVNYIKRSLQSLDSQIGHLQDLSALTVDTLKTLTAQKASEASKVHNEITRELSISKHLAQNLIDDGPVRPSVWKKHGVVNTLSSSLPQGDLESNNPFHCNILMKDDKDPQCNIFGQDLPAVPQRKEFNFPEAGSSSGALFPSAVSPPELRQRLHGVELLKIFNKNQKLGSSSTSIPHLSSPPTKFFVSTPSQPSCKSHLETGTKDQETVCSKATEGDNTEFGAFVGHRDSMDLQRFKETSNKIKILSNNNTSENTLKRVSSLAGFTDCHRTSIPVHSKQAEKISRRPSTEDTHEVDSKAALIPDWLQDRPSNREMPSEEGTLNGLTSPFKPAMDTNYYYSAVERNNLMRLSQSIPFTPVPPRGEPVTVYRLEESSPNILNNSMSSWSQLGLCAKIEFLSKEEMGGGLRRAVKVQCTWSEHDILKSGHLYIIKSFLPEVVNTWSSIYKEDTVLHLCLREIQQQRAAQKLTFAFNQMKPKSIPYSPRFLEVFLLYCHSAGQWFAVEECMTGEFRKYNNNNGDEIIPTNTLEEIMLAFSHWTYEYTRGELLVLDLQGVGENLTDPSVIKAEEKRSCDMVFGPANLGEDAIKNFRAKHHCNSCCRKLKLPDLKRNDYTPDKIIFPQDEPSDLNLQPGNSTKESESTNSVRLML

inhibition [1]: 0%
fold change (FC) [2]: 0.08
Compound: CNC(=O)c1ccccc1Oc1nc(Nc2cc(OC)c(OC)c(OC)c2)ncc1Br

inhibition [3]: 6%
inhibition [4]: 90%
fold change (FC) [5]: 0
Compound: CC(C)[C@H](NC(=O)c1cc(-c2cnn3cc(-c4ccc(OCCN5CCCCC5)cc4)cnc23)cs1)C(F)(F)F

fold change (FC) [6]: 0.03
fold change (FC) [7]: 0.01
fold change (FC) [8]: 0.36
fold change (FC) [9]: 0.01
Compound: O=C(N[C@@H](C1CC1)C(F)(F)F)c1cc(-c2cnn3cc(-c4ccc(F)cc4)cnc23)cs1
